According to US20260053931A1, “MDM2 TARGETING PROTACS” (THE WISTAR INSTITUTE OF ANATOMY AND BIOLOGY, priority 2023, published 2026):
Entries after “also recorded” stand apart in the source; their conditions may differ. Like-named read-outs stand apart in the source and are kept apart here.

Columns and labels:
[1] = system: SEM cells; assay: Cell death of other cancer cell lines: SEM; type: cell-based; details: Homo sapiens, B-ALL
Protocol: (§1) The PROTACs prepared herein were tested for their use in other cancer cell lines to determine activity in multiple different types of cancer.

[2] = system: H1299; assay: Cell death of other cancer cell lines: H1299; type: cell-based; details: Homo sapiens, NCI-H1299; H1299, Lung adenocarcinoma
Protocol: as §1

[3] = system: SU-DHL-6; assay: Cell death of other cancer cell lines: SU-DHL-6; type: cell-based; details: Homo sapiens; SU-DHL-6, Diffuse large B cell lymphoma
Protocol: as §1

[4] = system: Hut-78; assay: Cell death of other cancer cell lines: Hut-78; type: cell-based; details: Homo sapiens, HuT78; Hut-78, T cell lymphoma
Protocol: as §1

[5] = biological target: Mdm2 (Homo sapiens, UniProt Q00987); assay: Mdm2 HTRF binding assay (Table 2)
Mdm2, sequence (Q00987 26-109 limits assumed): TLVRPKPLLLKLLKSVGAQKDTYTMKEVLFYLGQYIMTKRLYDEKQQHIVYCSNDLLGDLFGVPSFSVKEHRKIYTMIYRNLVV
Description: An HTRF binding assay was developed using a biotinylated peptide containing the Mdm2-binding domain of p53 and a recombinant GST-tagged N-terminus of Mdm2 containing the p53-binding domain. HTRF is a proximity-based fluorescence energy transfer (FRET) assay that takes advantage of the unique time-resolved fluorescence of the lanthanide chelates, such as terbium and europium. HTRF IC50 values are provided for all key compounds (FIG. 13C, FIG. 19B, and Table 2).

[6] = system: SU-DHL-8; assay: Cell death of other cancer cell lines: SU-DHL-8; type: cell-based; details: Homo sapiens; SU-DHL-8, Diffuse large B cell lymphoma
Protocol: as §1

[7] = system: PC9; assay: Cell death of other cancer cell lines: PC9; type: cell-based; details: Homo sapiens, PC-9; PC9, Lung adenocarcinoma
Protocol: as §1

[8] = system: SKOV3; assay: Cell death of other cancer cell lines: SKOV3; type: cell-based; details: Homo sapiens, SK-OV-3; SKOV3, Ovarian
Protocol: as §1

[9] = In vivo tolerability, nude mice; design: species or system mouse; details: YX-02-030 50 mg/kg IP, YX-02-228 30 mg/kg IP, once daily
Protocol: FIGS. 25A & 25B show the in vivo tolerability tests conducted with the 2 lead Mdm2 PROTACs to evaluate tolerated doses and effects on normal tissues. Nude mice were treated with Mdm2 PROTACs, YX-02-030 (50 mg/kg; IP) and YX-02-228 (30 mg/kg; IP) once daily for 14 days. […] Fresh, surgically-resected tumor from five TNBC patients was obtained, and 80% were from Black/African American patients.
In vivo tolerability tests were conducted with the 2 lead Mdm2 PROTACs to evaluate tolerated doses and effects on normal tissues. Nude mice were treated with Mdm2 PROTACs, YX-02-030 (50 mg/kg; IP) and YX-02-228 (30 mg/kg; IP) once daily for 8 days.

[10] = system: HH; assay: Cell death of other cancer cell lines: HH; type: cell-based; details: Homo sapiens, T cell lymphoma
Protocol: as §1

[11] = system: OVCAR4; assay: Cell death of other cancer cell lines: OVCAR4; type: cell-based; details: Homo sapiens, OVCAR-4; OVCAR4, Ovarian
Protocol: as §1

[12] = Mouse pharmacokinetic study, intraperitoneal; type: in vivo; details: single 10 mg/kg intraperitoneal dose, 0.25-6 h
Protocol: To translate cell-based activity to in vivo efficacy, the Mdm2 PROTACs were evaluated for metabolic stability and plasma compound levels after IP injection in the mouse. Mouse liver microsome stability was obtained for lead compounds (Alliance Pharma, Inc; Malvern PA) as a predictive measure for suitable exposure in a mouse pharmacokinetic study. In brief, test compounds (0.5 μM) are incubated with liver microsomes ([…]) and an NADPH-regenerating system (cofactor solution) and samples are taken at various timepoints, quenched with an acetonitrile solution containing an internal standard, then analyzed by LC-MS/MS. […] Mouse pharmacokinetic studies for YX-02-030 and YX-02-288 were completed. Mouse plasma levels were evaluated following intraperitoneal (10 mg/kg) administration. Plasma was collected at timepoints 0.25 h, 0.5 h, 1 h, 2 h, 4 h and 6 h after Mdm2 PROTAC injection. Plasma was deproteinized and analyzed for compound using LC-MS/MS methods. Three mice were used for each time point and one control animal (Alliance Pharma Inc, Malvern PA).

[13] = system: KPCA; assay: Cell death of other cancer cell lines: KPCA; type: cell-based; details: Ovarian, Mouse
Protocol: as §1

[14] = system: RS4; 11; assay: Cell death of other cancer cell lines: RS4; 11; type: cell-based; details: Homo sapiens, 11, B-ALL
Protocol: as §1

[15] = system: Raji; assay: Cell death of other cancer cell lines: Raji; type: cell-based; details: Homo sapiens, Burkitt lymphoma, values may change up to ±1-2 μM depending on the cell density
Protocol: as §1

[16] = system: mut p53 MDA-MD-231 cells; assay: Live cell count with CellTag700 Stain in ICW format; details: after 24 h and 48 h treatment
Protocol: Cells are seeded in 96 half area well plates (black clear bottom) and cultured overnight. Then they are treated with compounds, fixed with 4% paraformaldehyde for 20 minutes, and permeabilized in 0.1% Triton. They are then treated with the primary antibody and secondary antibody conjugated to IRDye800CW or treated with CellTag 700 Stain. The plates are then scanned on the OdysseyCLX and the data processed to provide a dose response curve.
Since genetic deletion of Mdm2 induces p73 and induces apoptosis in p53 mutant and deficient cancer cells, YX-02-030 and YX-02-228 were evaluated for their effect on cell viability. First, the CellTag700 Stain was utilized to count the number of live cells in the ICW format.

[17] = system: Ramos; assay: Cell death of other cancer cell lines: Ramos; type: cell-based; details: Homo sapiens, Burkitt lymphoma
Protocol: as §1

[18] = system: MOLT1; assay: Cell death of other cancer cell lines: MOLT1; type: cell-based; details: Homo sapiens; MOLT1, T-ALL
Protocol: as §1

[19] = biological target: T1, human cereblon (CRBN) complex (Homo sapiens, UniProt Q96SW2); assay: HTRF binding assay for Cereblon (Table 2)
T1 construct: purchased R & D systems
T1 sequence (Q96SW2 whole entry): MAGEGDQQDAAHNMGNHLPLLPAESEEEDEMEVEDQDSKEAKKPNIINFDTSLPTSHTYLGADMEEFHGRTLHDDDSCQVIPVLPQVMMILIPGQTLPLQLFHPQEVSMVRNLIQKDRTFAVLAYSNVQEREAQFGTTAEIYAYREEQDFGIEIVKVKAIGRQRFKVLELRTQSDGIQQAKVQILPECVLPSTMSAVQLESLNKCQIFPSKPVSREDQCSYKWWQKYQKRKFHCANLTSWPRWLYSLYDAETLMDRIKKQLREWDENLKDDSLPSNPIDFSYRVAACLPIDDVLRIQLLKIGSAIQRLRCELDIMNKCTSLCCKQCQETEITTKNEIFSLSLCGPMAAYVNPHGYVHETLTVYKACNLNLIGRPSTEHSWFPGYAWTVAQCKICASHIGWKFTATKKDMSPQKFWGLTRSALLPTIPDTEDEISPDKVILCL
T1 sequence (Q16531 whole entry partner): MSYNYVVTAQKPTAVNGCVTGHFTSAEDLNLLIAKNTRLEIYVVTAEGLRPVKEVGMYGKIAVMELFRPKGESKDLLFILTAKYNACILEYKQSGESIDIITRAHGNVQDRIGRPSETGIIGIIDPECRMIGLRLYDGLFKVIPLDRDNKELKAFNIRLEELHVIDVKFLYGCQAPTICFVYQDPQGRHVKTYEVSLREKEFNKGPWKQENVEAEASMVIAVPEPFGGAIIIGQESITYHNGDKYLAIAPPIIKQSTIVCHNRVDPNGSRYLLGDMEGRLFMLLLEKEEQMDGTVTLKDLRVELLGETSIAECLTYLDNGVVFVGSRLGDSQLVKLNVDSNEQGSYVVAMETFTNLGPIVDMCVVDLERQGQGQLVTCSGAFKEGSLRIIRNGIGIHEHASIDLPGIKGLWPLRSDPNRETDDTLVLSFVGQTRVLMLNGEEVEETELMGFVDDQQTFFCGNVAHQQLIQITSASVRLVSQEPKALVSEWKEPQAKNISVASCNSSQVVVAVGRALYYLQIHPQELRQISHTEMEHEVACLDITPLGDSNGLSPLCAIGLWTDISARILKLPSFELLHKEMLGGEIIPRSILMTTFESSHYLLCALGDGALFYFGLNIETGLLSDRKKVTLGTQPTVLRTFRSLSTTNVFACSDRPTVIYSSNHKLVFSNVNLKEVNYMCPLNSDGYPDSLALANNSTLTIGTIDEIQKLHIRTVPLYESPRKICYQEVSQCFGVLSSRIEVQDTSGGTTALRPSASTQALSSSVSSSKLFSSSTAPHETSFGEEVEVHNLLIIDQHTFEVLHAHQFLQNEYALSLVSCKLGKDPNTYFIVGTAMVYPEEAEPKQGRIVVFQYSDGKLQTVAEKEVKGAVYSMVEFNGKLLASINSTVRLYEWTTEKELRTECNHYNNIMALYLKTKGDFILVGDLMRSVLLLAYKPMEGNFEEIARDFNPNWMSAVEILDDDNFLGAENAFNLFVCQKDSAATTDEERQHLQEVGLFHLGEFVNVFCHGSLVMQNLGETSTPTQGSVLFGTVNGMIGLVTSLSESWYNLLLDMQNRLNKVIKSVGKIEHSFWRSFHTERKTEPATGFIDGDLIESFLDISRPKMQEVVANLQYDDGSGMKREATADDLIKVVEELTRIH
T1 sequence (Q13619 whole entry partner): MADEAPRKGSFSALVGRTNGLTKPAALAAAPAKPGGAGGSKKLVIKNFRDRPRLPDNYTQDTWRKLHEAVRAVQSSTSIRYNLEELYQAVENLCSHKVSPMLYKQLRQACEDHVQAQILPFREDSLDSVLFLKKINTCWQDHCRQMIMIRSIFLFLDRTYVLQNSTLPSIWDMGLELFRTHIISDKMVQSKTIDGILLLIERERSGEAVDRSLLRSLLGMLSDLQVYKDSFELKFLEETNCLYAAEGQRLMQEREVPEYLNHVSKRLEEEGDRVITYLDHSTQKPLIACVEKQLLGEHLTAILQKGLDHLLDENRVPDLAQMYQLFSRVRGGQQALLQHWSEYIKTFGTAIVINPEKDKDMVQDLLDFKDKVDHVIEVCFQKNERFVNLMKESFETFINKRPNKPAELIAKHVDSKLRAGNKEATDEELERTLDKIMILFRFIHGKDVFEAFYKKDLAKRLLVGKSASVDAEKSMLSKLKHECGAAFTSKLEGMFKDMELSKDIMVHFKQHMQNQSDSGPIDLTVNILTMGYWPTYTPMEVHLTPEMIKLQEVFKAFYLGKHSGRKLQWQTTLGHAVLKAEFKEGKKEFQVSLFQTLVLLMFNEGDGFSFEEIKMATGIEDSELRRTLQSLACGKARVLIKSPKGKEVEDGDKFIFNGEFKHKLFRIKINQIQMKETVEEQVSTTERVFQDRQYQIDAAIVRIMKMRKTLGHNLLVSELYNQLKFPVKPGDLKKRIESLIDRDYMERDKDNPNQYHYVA
T1 sequence (P62877 whole entry partner): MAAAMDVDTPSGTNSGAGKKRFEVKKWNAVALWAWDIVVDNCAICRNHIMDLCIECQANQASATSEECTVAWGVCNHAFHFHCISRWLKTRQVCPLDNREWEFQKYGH
Description: Biochemical assays in 384-well format have established to assess the binding of newly synthesized PROTACs to the appropriate E3 ligase using HTRF technology. In these assays an anti-HIS antibody conjugated to terbium was used as the donor fluor, and either a Cy5 labeled small molecule probe, or a biotinylated peptide that is bound to a streptavidin acceptor.
Cereblon: Recombinant human cereblon (CRBN) complex, including CUL4A, RBX1, DDB1 and CRBN is purchased from R & D systems. This four-member protein complex has an N-terminal HIS tag on the CUL4A subunit. The CRBN complex is diluted in assay buffer containing anti-HIS-Tb Cryptate Gold (CisBio) and is added to low volume 384-well plates. Test compounds in 100% DMSO are added to the plates followed by the Cy5-labeled lenolidamide probe. After 1 hour the HTRF signal is measured on the Envision. Data are normalized to % inhibition. The typical signal-to-noise is 5:1. Bi-functional molecules containing the Cereblon ligands are tested in TABLE 2 (see YX-02-041).

| SMILES | IC50 [1] [µM] | IC50 [2] [µM] | IC50 [3] [µM] | IC50 [4] [µM] | IC50 [6] [µM] | IC50 [7] [µM] | IC50 [8] [µM] | blood counts [9] | body weight [9] | clinical observations for spleen and bone marrow [9] | IC50 [10] [µM] | IC50 [11] [µM] | IC50 [13] [µM] | IC50 [14] [µM] | IC50 [15] [µM] | cytotoxic effect, number of live cells [16] | IC50 [17] [µM] | IC50 [18] [µM] | IC50 [19] [µM] | other results |
| --- | --- | --- | --- | --- | --- | --- | --- | --- | --- | --- | --- | --- | --- | --- | --- | --- | --- | --- | --- | --- |
| CCOc1cc(C(C)(C)C)ccc1C1=N[C@](C)(c2ccc(Cl)cc2)[C@](C)(c2ccc(Cl)cc2)N1C(=O)N1CCN(CC(=O)NCCOCCOCCOCC(=O)N[C@H](C(=O)N2C[C@H](O)C[C@H]2C(=O)NCc2ccc(-c3scnc3C)cc2)C(C)(C)C)CC1 (racemic) [YX-02-030] | 3.2 | 4.2 | 3.6 | 9 | 1.9 | 4.5 | 5.7 | no significant change | no significant change in body weight | no adverse clinical observations | 6.3 | 4.6 | 2.9 | 1.9 | 2.8 | potent cytotoxic effects | 3.1 | 2.6 | > 10 | IC50 [5]: 0.014 µM; in vivo plasma levels ([12]; 10 mg/kg): prolonged in vivo plasma exposure; also recorded: plasma levels stable over 6 hours |
| CCOc1cc(C(C)(C)C)ccc1C1=N[C@](C)(c2ccc(Cl)cc2)[C@](C)(c2ccc(Cl)cc2)N1C(=O)N1CCN(CC(=O)NCCCNC(=O)COc2ccc3c(c2)CN(C(=O)[C@H](NC(=O)[C@@H](C)NC)C(C)(C)C)[C@@H](C(=O)N[C@H]2CCCc4ccccc42)C3)CC1 [YX-02-228, (R)-7-(2-((3-(2-(4-((4R,5S)-2-(4-(tert-butyl)-2-ethoxyphenyl)-4,5-bis(4-chlorophenyl)-4,5-dimethyl-4,5-dihydro-1H-imidazole-1-carbonyl)piperazin-1-yl)acetamido)propyl)amino)-2-oxoethoxy)-2-((R)-3,3-dimethyl-2-((R)-2-(methylamino)propanamido)butanoyl)-N-((S)-1,2,3,4-tetrahydronaphthalen-1-yl)-1,2,3,4-tetrahydroisoquinoline-3-carboxamide] | 4.2 | 5.3 | 2.9 | 8.8 | 4.6 | 4.6 | 3.2 | no significant change | no significant change in body weight | no adverse clinical observations | 5.5 | 4.8 | 3.4 | 2.5 | 5.9 | potent cytotoxic effects | 5.5 | 2.7 | > 10 | IC50 ([5]; read-out: Mdm2 HTRF IC50): 0.013 µM; in vivo plasma levels [12]: prolonged in vivo plasma exposure |
